This is an account of results in paper PMC4736156 (Drug delivery and translational research, 2016).

Data set [1] can be described thus: Penetration and retention in mouse colorectal mucosa after rectal dosing. Format: in vivo. The note with it: mice, rectal 200 µl of 30 µM; at 2 h and 1 d; result in words.
For data set [2] the following is noted: in vivo; cited from earlier work.
The subject of another data set is HIV. The following applies: tenofovir gel formulation, vaginal mucosa, CAPRISA 004; ref [4],[5]; cited from earlier work.
The target of a further data set is recombinant HIV-1 PR (Human immunodeficiency virus type 1 group M subtype B, UniProt P04585). The data set can be described thus: FRET-based HIV-1 PR inhibition assay. Format: biochemical. The following applies: FRET substrate 5.0 µM, HIV-1 PR 35.2 nM, 37 °C, mean ± s.d., n = 3.
For data set [3] the following is noted: in serum; ref [16]; cited from earlier work.

Values joined by “and” are separate entries in the source; they are usually repeats but may differ in a detail not shown here. Equal values may be shown once. Where a name gives a salt, the structure may show the parent alone.

fluoresceine thiourea [FTU]: in data set [1], the mucosal tissue concentration result is on record as “negligible”.
Turning to `CC(Cn1cnc2c(N)ncnc21)OCP(=O)(O)OP(=O)(O)OP(=O)(O)O` (stereo in doubt) [tenofovir diphosphate], the “vaginal concentrations in tissue after daily gel administration” value in data set [2] is listed as “about 1000 fmol/mg”.
For `C[C@H](Cn1cnc2c(N)ncnc21)OCP(=O)(O)O` [tenofovir], the “effectiveness in preventing HIV transmission” value with HIV was 39%.
For `CC(C)CN(C[C@@H](O)[C@H](Cc1ccccc1)NC(=O)O[C@H]1CCOC1)S(=O)(=O)c1ccc(N)cc1` [APV, amprenavir], the “cell viability compared to untreated cells” value with MT-2 cells is “no statistical difference in comparison to untreated cells”. For the same molecule, the “rate constant kobs of FRET substrate cleavage (slope of ln(F∞ – Ft) vs time)” value at recombinant HIV-1 PR (1.0 µM APV) is −0.1638 (± 0.0080) min^−1 and −0.1638 (± 0.007995) min^−1; on recombinant HIV-1 PR (2.0 µM APV), −0.0890 (± 0.0049) min^−1 and −0.0890 (± 0.004938) min^−1; at recombinant HIV-1 PR (5.0 µM APV), −0.03766 (± 0.0019) min^−1 and −0.03766 (± 0.00191) min^−1.
With `CC(C)OC(=O)OCOP(=O)(CO[C@H](C)Cn1cnc2c(N)ncnc21)OCOC(=O)OC(C)C` [TDF, tenofovir disoproxil fumarate], the half-life entry in data set [3] is recorded as “about 17 hours”.
